According to ChEMBL document CHEMBL4196002, “Design, synthesis, mechanistic and histopathological studies of small-molecules of novel indole-2-carboxamides and pyrazino[1,2-a]indol-1(2H)-ones as potential anticancer agents effecting the reactive oxygen species production” (Eur J Med Chem, 2018):

Experiments:
[1] = system: MIA PaCa-2; test: Antiproliferative activity human MIAPaCa2 cells after 48 hrs by propidium iodide staining-based fluorescence assay; format: functional, cell-based; details: MIA PaCa-2, 48 h
[2] = Cytotoxicity against human MCF10A cells assessed as cell viability at 50 uM after 96 hrs by MTT assay relative to control; format: cell-based, MCF-10A; details: read-out: Activity
[3] = system: MCF7; test: Antiproliferative activity human MCF7 cells after 48 hrs by propidium iodide staining-based fluorescence assay; format: functional, cell-based; details: MCF7, 48 h
[4] = system: PC-3; test: Antiproliferative activity human PC3 cells after 48 hrs by propidium iodide staining-based fluorescence assay; format: functional, cell-based; details: PC-3, 48 h
[5] = Inhibition of ROS generation in human PMN at 6.25 ug/ml after 50 mins by luminol-based chemiluminescence assay relative to control; format: functional
[6] = (§1) Inhibition of ROS generation in human PMN after 50 mins by luminol-based chemiluminescence assay; format: functional
[7] = species on record: Homo sapiens; test: as §1; format: functional
[8] = Antioxidant activity assessed as DPPH radical scavenging activity at 10 uM after 30 mins dark incubation; format: functional
[9] = Antioxidant activity assessed as DPPH radical scavenging activity at 100 uM after 30 mins dark incubation; format: functional
[10] = Inhibition of ROS generation in human PMN at 12.5 ug/ml after 50 mins by luminol-based chemiluminescence assay relative to control; format: functional
[11] = Inhibition of ROS generation in human PMN at 3.13 ug/ml after 50 mins by luminol-based chemiluminescence assay relative to control; format: functional
[12] = Inhibition of ROS generation in human PMN at 0.78 ug/ml after 50 mins by luminol-based chemiluminescence assay relative to control; format: functional
[13] = system: HT-29; test: Antiproliferative activity human HT-29 cells after 48 hrs by propidium iodide staining-based fluorescence assay; format: functional, cell-based; details: HT-29, 48 h
[14] = Antioxidant activity assessed as DPPH radical scavenging activity at 50 uM after 30 mins dark incubation; format: functional
[15] = Inhibition of ROS generation in human PMN at 1.56 ug/ml after 50 mins by luminol-based chemiluminescence assay relative to control; format: functional
[16] = system: A549; test: Antiproliferative activity human A549 cells after 48 hrs by propidium iodide staining-based fluorescence assay; format: functional, cell-based; details: A549, 48 h

Row | Compound | IC50 [1] | viability at 96 h, 50 µM [2] | IC50 [3] | IC50 [4] | inhibition at 6.25 µg/mL [5] | IC50 [6] | inhibition [7] | Activity [8] | Activity [9] | inhibition at 12.5 µg/mL [10] | inhibition at 3.13 µg/mL [11] | inhibition at 0.78 µg/mL [12] | IC50 [13] | Activity [14] | inhibition at 1.56 µg/mL [15] | IC50 [16]
1 | CCc1c2cc(Cl)ccc2n2cc(Cc3ccccc3)[nH]c(=O)c12 | 8.3 µM | 89% | 7.5 µM | 5.1 µM | 60% | 13.8 µM | Dose-dependent effect | 40.8% | 71.6% | 72% | 37% | 14% | 7.7 µM | 59% | 27% | 6 µM
2 | CCc1c(C(=O)NC(CO)Cc2ccccc2)[nH]c2ccc(Br)cc12 (stereo unspecified) | 5.5 µM | 85% | 4.7 µM | 5.9 µM | 55% | 10.6 µM | Dose-dependent effect | 49.2% | 78.5% | 67% | 45% | 19% | 6.5 µM | 67.4% | 31% | 4.8 µM
3 | CC(=O)Oc1ccccc1C(=O)O [ASPIRIN] |  |  |  |  | 85% | 9.78 µM |  |  |  | 92% | 63% | 33% |  |  | 46% | 
4 | O=C(NC(CO)Cc1ccccc1)c1cc2ccccc2[nH]1 (stereo unspecified) | 18.6 µM | 96% | 16.4 µM | 16.5 µM | 47% | 23.1 µM | Dose-dependent effect | 24.8% | 64.6% | 64% | 32% | 9% | 16.9 µM | 50.1% | 21% | 15.4 µM
5 | CCc1c2cc(Cl)ccc2n2cc(Cc3ccc(Cl)cc3)[nH]c(=O)c12 | 33.7 µM | 90% | 26.5 µM | 15.8 µM | 68% | 7.77 µM | Dose-dependent effect | 50.4% | 84.5% | 83% | 52% | 25% | 27.8 µM | 70.1% | 37% | 27.9 µM
6 | CCc1c(C(=O)NC(CO)Cc2ccc(Cl)cc2)[nH]c2ccc(Cl)cc12 (stereo unspecified) | 36 µM | 92% | 35.4 µM | 17.8 µM | 58% | 11.8 µM | Dose-dependent effect | 41.4% | 79.9% | 74% | 43% | 22% | 34.7 µM | 59.3% | 28% | 29.5 µM
7 | O=c1[nH]c(Cc2ccccc2)cn2c1cc1ccccc12 | 13.8 µM | 92% | 13.6 µM | 13.4 µM | 51% | 19 µM | Dose-dependent effect | 29.3% | 65.9% | 68% | 40% | 14% | 13.8 µM | 52.4% | 27% | 14.7 µM
8 | CCc1c(C(=O)NC(CO)Cc2ccccc2)[nH]c2ccc(Cl)cc12 (stereo unspecified) | 12.5 µM | 87% | 12.9 µM | 8.9 µM | 55% | 13 µM | Dose-dependent effect | 39.9% | 70.2% | 68% | 42% | 20% | 12.2 µM | 58.7% | 31% | 11.4 µM
9 | Cc1c(C)c2c(c(C)c1O)CCC(C)(C(=O)O)O2 (stereo unspecified) |  |  |  |  |  |  |  | 77.6% | 95.2% |  |  |  |  | 82.5% |  | 
